{"source": "patent US12220525B2", "about": "“Tiotropium formulation and inhaler” (KINDEVA DRUG DELIVERY L.P., priority 2018, dated 2025)", "assay": "Delivered dose study (unit spray collection apparatus, USCA)", "type": "physicochemical", "procedure": "Metered dose inhalers (MDIs) were prepared using deep drawn aluminum canisters (3M Corporation, Cltheroe, UK), 50 microliter Bespak PBT (polybutylene terephthalate) valves (BK0514719, Bespak Europe Ltd, Bergen Way, King's Lynn, Norfolk, PE30 2JJ) fitted with EPDM (ethylene-propylene diene terpolymer elastomer) diaphragm seals, and an Mk6 P&B actuator. The internal surface of each canister was coated with FEP (fluorinated ethylene propylene copolymer). The bulk formulation for cold filling individual canisters can be prepared by first admixing citric acid and the ethanol, and then adding the tiotropium bromide to the citric acid and ethanol mixture. HFA-134a propellant was then added to a separate batching vessel, and the mixture of tiotropium bromide, citric acid, and ethanol was then added be to the HFA-134a. The formulation was mixed at −50° C. The metered dose inhalers made according to Table 1 were designed to deliver 5 micrograms of Tiotropium (free base) per actuation.\nThe start of unit life delivered dose was determined using standard unit spray collection apparatus (USCA) fitted with a filter. For each determination, an MDI was attached to the USCA using a coupler and actuated a single time. Immediately prior to attachment, the MDI was shaken. Prior to collection of the test sample, the MDI was primed by actuating four times. Prior to each priming shot the MDI was shaken.", "data": [{"smiles": "C[N+]1(C)[C@@H]2C[C@@H](OC(=O)C(O)(c3cccs3)c3cccs3)C[C@H]1[C@@H]1O[C@@H]12", "note": "[tiotropium bromide]", "values": [{"measurement": "Start of life dose content uniformity", "setting": "MDI with Table 1 formulation (0.1204 mg/ml tiotropium bromide, 0.04 wt. % citric acid, 15 wt. % ethanol, HFA-134a; FEP can), primed by actuating four times, single actuation, FIG. 5", "value": 4.3, "unit": "mcg/actuation"}, {"measurement": "uniformity of dose delivered on storage", "setting": "MDI with Table 1 formulation, on storage, FIG. 7", "value": "remained constant on storage"}]}]}
